Results: ChEMBL document CHEMBL3039007, “Structure-based identification of OATP1B1/3 inhibitors” (Mol Pharmacol, 2013)
Residues, ends and D or L forms follow the SMILES beside them.

Legend:
[1] = molecular target: T1, Solute carrier organic anion transporter family member 1B1 (Homo sapiens, UniProt Q9Y6L6); settings: chinese hamster, cho, 10 µM
T1 sequence (Q9Y6L6 whole entry): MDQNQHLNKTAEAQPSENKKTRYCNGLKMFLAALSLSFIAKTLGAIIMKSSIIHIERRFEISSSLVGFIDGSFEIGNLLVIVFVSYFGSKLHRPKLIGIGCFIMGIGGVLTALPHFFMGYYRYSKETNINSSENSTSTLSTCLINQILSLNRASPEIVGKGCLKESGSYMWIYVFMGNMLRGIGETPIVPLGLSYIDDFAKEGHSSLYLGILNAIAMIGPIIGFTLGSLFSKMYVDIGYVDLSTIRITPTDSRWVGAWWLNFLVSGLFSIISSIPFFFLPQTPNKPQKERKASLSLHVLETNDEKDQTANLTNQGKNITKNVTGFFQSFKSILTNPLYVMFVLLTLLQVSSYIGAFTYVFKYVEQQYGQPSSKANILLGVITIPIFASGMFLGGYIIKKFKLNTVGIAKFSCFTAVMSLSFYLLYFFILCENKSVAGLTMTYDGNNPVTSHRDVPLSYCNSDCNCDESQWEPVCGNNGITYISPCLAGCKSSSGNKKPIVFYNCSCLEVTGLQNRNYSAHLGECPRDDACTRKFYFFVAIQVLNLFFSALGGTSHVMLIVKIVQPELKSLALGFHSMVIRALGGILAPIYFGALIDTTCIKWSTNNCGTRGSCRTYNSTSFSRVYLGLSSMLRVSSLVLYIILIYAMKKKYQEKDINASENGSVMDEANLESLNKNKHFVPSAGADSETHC

[2] = molecular target: T2, Solute carrier organic anion transporter family member 1B3 (Homo sapiens, UniProt Q9NPD5); settings: chinese hamster, cho, 10 µM
T2 sequence (Q9NPD5 whole entry): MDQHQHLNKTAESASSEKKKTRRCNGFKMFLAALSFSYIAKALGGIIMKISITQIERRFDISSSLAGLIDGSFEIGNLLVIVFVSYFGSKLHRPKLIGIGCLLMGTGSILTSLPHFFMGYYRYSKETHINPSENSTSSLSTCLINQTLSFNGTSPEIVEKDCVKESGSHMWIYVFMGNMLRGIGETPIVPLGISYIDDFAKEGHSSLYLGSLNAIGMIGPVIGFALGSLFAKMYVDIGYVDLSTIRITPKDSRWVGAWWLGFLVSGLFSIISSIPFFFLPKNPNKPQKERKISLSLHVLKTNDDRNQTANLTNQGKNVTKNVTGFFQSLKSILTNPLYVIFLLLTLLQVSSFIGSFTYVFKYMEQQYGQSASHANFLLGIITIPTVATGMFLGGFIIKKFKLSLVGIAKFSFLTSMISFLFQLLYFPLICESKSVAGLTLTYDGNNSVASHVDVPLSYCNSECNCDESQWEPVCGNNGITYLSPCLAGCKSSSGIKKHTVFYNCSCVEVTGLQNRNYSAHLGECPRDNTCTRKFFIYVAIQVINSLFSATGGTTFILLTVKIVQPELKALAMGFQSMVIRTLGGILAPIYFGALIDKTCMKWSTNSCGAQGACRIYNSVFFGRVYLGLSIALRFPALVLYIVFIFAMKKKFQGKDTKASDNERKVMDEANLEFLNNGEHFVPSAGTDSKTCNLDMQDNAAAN

Compound	residual activity [1]	residual activity [2]
COC(=O)[C@H](O)[C@H]1C(C)(C)[C@H](OC(C)=O)[C@@H]2CC3=C4CC(=O)O[C@@H](c5ccoc5)[C@]4(C)CC[C@@H]3[C@@]1(C)C2=O [SWIETENOLIDE-3-ACETATE]	54.05%	66.25%
CCOP(=S)(OCC)SCCSCC [DISULFOTON]	113.3%	105.1%
CN1CCC(=C2c3ccccc3CC(=O)c3sccc32)CC1.O=C(O)/C=C/C(=O)O [KETOTIFEN FUMARATE]	94.79%	89.36%
CC(=O)OC[C@H]1O[C@@H](Oc2cc(OC(C)=O)c3c(=O)cc(-c4ccc(OC(C)=O)cc4)oc3c2)[C@H](OC(C)=O)[C@@H](OC(C)=O)[C@@H]1OC(C)=O [COSMOSIIN HEXAACETATE]	95.2%	48.4%
Cc1cc(C(C)(C)C)c(O)c(C)c1CC1=NCCN1.Cl [OXYMETAZOLINE HYDROCHLORIDE]	95.6%	104.7%
CC(N)C(=O)NC(Cc1ccccc1)C(=O)O (racemic) [ALANYL-dl-PHENYLALANINE]	90.94%	75.84%
[H]/N=C(/N)NS(=O)(=O)c1ccc(N)cc1 [SULFAGUANIDINE]	119.2%	108%
C[N+](C)(C)CCOC(N)=O.[Cl-] [CARBACHOL]	120.9%	105.7%
Oc1ccc2c(c1)OC[C@]1(O)Cc3cc(O)c(O)cc3[C@H]21 [BRAZILIN]	117.2%	101.4%
COC1C(O)C(O[C@H]2CC[C@]3(C=O)C4C(CC[C@]3(O)C2)[C@@]2(O)CC[C@H](C3=CC(=O)OC3)[C@@]2(C)C[C@H]4OC(C)=O)OC(C)C1OC(C)=O (some centres undefined) [SARMENTOSIDE B]	58.47%	72.65%
C=C1C2CC[C@@]3(C)[C@H](c4ccoc4)OC(=O)C[C@]13O[C@H]1CC(=O)C(C)(C)[C@H](C(O)C(=O)OC)[C@@]21C (some centres undefined) [6-HYDROXYANGOLENSIC ACID METHYL ESTER]	23.65%	61.1%
CO[C@H]1C=C[C@@]23c4cc5c(cc4CN(C[C@@H]2O)[C@H]3C1)OCO5	94.19%	100.9196%
Cc1c(Cl)cccc1Nc1ccccc1C(=O)O [TOLFENAMIC ACID]	95.07%	77.01%
CCCCC(CC)CN1CN(CC(CC)CCCC)CC(C)(N)C1 (centres undefined) [HEXETIDINE]	75.93%	102.1%
NC(=O)c1ccc(N)nc1 [6-AMINONICOTINAMIDE]	103.2%	108.6%
O=C1C=C2CC3(O)COc4cc(O)ccc4C3=C2C=C1O (centres undefined) [BRAZILEIN]	96.33%	95.51%
CC(Oc1ccccc1)C(=O)N[C@@H]1C(=O)N2[C@@H]1SC(C)(C)[C@@H]2C(=O)[O-].[K+] (some centres undefined) [PHENETHICILLIN POTASSIUM]	83.14%	90.72%
COc1ccc(/C=C/c2cc(O)cc(O[C@@H]3O[C@H](CO)[C@@H](O)[C@H](O)[C@H]3O)c2)cc1O [RHAPONTIN]	166.2%	100.6%
CC(C)c1c(O)ccc2c1CC[C@H]1[C@@](C)(C=O)CCC[C@]21C [TOTARAL]	80.52%	100.9%
O=C(Cc1ccccc1)NO [PHENYLACETOHYDROXAMIC ACID]	58.46%	75.25%
CCn1cc(C(=O)O)c(=O)c2ccc(C)nc21 [NALIDIXIC ACID]	63.37%	81.71%
CC(NCCC(c1ccccc1)c1ccccc1)c1ccccc1.Cl (centres undefined) [FENDILINE HYDROCHLORIDE]	90.27%	114.6%
COc1cc2c(c(OC)c1OC)-c1ccc(=O)c(O)cc1[C@@H](NC(C)=O)CC2 [COLCHICEINE]	124%	109.6%
O=c1ccc2ccccc2o1 [COUMARIN]	116.6%	99.05%

Compound	residual activity [1]	residual activity [2]
COc1ccc(-c2coc3cc(OC)cc(OC)c3c2=O)cc1 [BIOCHANIN A, DIMETHYL ETHER]	100.7%	81.69%
CCOC(=O)CCCCCCCCCCCCC1C=CCC1 (centres undefined) [CHAULMOOGRIC ACID, ETHYL ESTER]	108.7%	92.79%
CC(=O)O[C@@](C)(CCC=C(C)C)C1CC=C(C)CC1 (some centres undefined) [BISABOLOL ACETATE]	80.65%	92.66%
CNCCC(Oc1ccc(C(F)(F)F)cc1)c1ccccc1 (centres undefined) [FLUOXETINE]	55.32%	77.22%
Cc1ccc(C(=O)c2ccc(CC(=O)[O-])n2C)cc1.[Na+] [TOLMETIN SODIUM]	127.1%	90.31%
Cl.NCc1ccc(S(N)(=O)=O)cc1 [MAFENIDE HYDROCHLORIDE]	81.65%	85.4%
CC(C)C[C@H](N)C(=O)N[C@@H](C)C(=O)O [LEU-ALA] (H-Leu-Ala-OH)	93.04%	96.54%
O=C1CCc2cc(OCCCCc3nnnn3C3CCCCC3)ccc2N1 [CILOSTAZOL]	207.2%	98.73%
CCn1cc(C(=O)O)c(=O)c2cc(F)c(N3CCNCC3)nc21 [ENOXACIN]	111.1%	89.58%
O=C(Oc1cc(O)cc2c1C[C@@H](OC(=O)c1cc(O)c(O)c(O)c1)[C@@H](c1cc(O)c(O)c(O)c1)O2)c1cc(O)c(O)c(O)c1 [EPIGALLOCATECHIN 3,5-DIGALLATE]	55.31%	82.14%
C=C(C)[C@@H]1[C@H]2OC(=O)[C@@H]1[C@]1(O)C[C@H]3O[C@]34C(=O)O[C@H]2[C@]14C [PICROTOXININ]	102.7%	101.9%
CC(C)CC(NC(=O)OCC1c2ccccc2-c2ccccc21)C(=O)O (single isomer, unassigned) [N- (9-FLUORENYLMETHOXYCARBONYL)-L-LEUCINE]	32.48%	48.34%
C[C@]12CC[C@H](O)C[C@H]1CC[C@@H]1[C@@H]2[C@H](O)C[C@]2(C)[C@@H](C3=CC(=O)OC3)CC[C@]12O [SARMENTOGENIN]	70.58%	105.8%
COC(=O)Nc1nc2ccc(Sc3ccccc3)cc2[nH]1 [FENBENDAZOLE]	105.4%	102.5%
Cc1cc(O)cc(O)c1C(=O)O [ORSELLINIC ACID]	66.07%	86.96%
CCCCC[C@H](CC(=O)O)C(=O)O [NONIC ACID]	128.4%	117%
O=C(/C=C/c1ccc(O)c(O)c1)OCCc1ccccc1 [CAFFEIC ACID PHENETHYL ESTER]	254%	143.5%
COc1cc2c(cc1O)CCN[C@@H]2C [SALSOLINE]	86.65%	112.8%
COc1ccccc1/C=C/C(=O)O [COUMARINIC ACID METHYL ETHER]	110.4%	119.3%
CC(=O)Oc1cc(OC(C)=O)c2c(c1)O[C@H](c1ccc(OC(C)=O)c(OC(C)=O)c1)[C@H](OC(C)=O)C2 [EPICATECHIN PENTAACETATE]	74.79%	76.08%
CCN1CCCC(OC(=O)C(c2ccccc2)c2ccccc2)C1.Cl (centres undefined) [PIPERIDOLATE HYDROCHLORIDE]	65.65%	96%
Sc1nc2ccccc2s1 [2-MERCAPTOBENZOTHIAZOLE]	158.6%	97.95%
COc1ccc(C(=O)c2ccccc2)c(O)c1 [OXYBENZONE]	225.4%	128.4%
